Tests used:
Format in all cases: protein-complex assay
[1] = molecular target: Integrin alpha-V/beta-3 (Homo sapiens, UniProt P05106+P06756); assay: In vitro inhibitory activity against alpha v beta 3 vitronectin protein interaction was measured by ELISA
[2] = molecular target: Integrin alpha-IIb/beta-3 (Homo sapiens, UniProt P05106+P08514); assay: In vitro inhibitory activity against alpha IIb beta IIIa fibrinogen protein interaction was measured by ELISA
[3] = molecular target: Integrin alpha-V/beta-5 (Homo sapiens, UniProt P06756+P18084); assay: In vitro inhibitory activity against alpha v beta 5 vitronectin protein interaction was measured by ELISA
Chain of Integrin alpha-V/beta-5 (P06756 31-889 limits assumed): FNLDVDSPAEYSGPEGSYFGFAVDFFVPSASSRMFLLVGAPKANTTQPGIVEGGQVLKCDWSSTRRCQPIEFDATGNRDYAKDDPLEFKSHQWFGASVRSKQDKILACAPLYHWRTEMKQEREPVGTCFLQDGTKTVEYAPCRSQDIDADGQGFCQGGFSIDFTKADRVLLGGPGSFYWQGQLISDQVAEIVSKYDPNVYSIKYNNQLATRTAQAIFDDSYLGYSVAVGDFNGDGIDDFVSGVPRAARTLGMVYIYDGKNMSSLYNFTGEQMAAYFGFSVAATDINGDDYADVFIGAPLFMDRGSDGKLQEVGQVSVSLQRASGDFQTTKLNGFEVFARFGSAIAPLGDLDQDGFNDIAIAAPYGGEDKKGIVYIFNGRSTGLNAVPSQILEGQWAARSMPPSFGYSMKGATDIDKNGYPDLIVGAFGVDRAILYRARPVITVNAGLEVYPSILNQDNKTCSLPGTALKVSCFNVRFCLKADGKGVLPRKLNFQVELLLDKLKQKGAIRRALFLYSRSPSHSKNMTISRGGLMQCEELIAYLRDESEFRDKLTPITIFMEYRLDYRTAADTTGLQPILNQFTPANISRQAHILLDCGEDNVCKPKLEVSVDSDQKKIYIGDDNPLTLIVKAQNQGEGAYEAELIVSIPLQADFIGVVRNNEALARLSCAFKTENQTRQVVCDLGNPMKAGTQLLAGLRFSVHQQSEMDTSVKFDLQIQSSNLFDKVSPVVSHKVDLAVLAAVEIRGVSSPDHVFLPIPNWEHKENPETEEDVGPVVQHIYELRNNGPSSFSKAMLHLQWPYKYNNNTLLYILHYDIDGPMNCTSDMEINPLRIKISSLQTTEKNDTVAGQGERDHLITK
Chain of Integrin alpha-V/beta-5 (P06756 891-1048 limits assumed): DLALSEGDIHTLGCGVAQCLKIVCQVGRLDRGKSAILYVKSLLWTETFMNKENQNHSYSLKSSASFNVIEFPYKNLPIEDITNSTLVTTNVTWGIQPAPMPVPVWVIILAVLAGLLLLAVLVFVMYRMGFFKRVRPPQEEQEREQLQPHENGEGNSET
Chain of Integrin alpha-V/beta-5 (P18084 24-799 limits assumed): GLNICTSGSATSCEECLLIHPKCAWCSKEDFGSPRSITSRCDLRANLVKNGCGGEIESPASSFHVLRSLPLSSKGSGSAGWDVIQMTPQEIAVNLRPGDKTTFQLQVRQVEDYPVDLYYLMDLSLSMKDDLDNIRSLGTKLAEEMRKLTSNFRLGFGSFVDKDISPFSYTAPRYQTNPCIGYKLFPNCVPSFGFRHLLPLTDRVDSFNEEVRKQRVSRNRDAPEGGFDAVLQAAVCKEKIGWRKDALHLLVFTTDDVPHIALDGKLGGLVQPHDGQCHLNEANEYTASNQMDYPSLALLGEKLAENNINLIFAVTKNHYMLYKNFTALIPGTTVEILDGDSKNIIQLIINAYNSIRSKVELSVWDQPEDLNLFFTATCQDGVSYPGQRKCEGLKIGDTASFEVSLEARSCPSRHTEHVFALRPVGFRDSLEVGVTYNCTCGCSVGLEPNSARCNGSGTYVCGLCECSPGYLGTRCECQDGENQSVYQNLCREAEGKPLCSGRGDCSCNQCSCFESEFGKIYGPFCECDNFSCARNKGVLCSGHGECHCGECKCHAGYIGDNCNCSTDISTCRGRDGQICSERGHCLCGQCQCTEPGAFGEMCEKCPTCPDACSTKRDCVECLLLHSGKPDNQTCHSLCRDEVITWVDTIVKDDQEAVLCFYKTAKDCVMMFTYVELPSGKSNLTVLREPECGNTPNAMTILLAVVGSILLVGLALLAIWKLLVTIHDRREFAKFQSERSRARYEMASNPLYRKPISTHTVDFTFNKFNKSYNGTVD

[4] = molecular target: Integrin alpha-5/beta-1 (Homo sapiens, UniProt P05556+P08648); assay: In vitro inhibitory activity against alpha 5 beta 1 fibronectin protein interaction was measured by ELISA

Chain of Integrin alpha-IIb/beta-3 (P05106 27-788 limits assumed): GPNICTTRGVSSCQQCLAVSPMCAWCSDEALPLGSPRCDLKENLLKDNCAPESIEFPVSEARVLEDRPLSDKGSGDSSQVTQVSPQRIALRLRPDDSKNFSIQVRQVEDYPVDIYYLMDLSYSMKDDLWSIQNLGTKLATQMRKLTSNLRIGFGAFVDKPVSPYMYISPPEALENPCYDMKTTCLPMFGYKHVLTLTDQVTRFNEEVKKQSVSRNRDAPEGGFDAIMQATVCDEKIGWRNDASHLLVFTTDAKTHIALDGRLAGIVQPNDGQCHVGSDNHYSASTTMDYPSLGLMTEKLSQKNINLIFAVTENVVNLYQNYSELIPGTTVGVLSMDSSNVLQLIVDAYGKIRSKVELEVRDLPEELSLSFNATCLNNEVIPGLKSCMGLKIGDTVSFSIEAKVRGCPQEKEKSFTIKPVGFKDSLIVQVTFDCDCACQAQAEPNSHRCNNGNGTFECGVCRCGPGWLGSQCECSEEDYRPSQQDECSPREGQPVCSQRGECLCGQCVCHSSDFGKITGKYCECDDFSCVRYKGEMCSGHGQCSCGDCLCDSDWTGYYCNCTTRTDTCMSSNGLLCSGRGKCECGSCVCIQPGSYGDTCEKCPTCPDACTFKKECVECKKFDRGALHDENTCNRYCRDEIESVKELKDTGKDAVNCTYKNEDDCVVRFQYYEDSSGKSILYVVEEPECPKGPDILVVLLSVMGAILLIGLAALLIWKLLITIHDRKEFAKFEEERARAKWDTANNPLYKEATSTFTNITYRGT
Chain of Integrin alpha-IIb/beta-3 (P08514 32-887 limits assumed): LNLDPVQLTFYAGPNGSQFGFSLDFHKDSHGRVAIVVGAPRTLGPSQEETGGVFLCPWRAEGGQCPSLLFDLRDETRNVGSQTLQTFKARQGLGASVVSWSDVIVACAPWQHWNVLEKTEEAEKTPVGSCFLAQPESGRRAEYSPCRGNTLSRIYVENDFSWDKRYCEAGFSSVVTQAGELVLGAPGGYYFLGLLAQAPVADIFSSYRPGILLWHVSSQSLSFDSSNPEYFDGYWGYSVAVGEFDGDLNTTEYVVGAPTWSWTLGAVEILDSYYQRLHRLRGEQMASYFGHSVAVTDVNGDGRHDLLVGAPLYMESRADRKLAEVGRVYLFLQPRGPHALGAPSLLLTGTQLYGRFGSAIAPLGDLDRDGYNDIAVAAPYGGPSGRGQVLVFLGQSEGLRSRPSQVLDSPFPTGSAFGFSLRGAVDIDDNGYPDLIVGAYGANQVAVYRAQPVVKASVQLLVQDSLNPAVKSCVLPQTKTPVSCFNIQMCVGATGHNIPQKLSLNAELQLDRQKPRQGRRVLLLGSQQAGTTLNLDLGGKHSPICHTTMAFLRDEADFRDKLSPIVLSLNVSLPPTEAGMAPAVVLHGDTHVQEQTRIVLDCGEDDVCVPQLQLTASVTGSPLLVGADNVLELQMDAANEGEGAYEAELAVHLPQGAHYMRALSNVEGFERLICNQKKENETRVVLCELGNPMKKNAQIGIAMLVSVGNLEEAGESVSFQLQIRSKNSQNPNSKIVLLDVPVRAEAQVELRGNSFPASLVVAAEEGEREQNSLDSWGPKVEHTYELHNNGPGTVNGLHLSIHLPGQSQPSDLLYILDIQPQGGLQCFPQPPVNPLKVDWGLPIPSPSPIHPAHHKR
Chain of Integrin alpha-IIb/beta-3 (P08514 891-1039 limits assumed): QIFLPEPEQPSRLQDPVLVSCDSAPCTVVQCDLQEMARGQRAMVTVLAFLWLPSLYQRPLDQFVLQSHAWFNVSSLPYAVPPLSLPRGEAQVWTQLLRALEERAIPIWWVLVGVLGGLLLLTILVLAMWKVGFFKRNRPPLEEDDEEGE
Chain of Integrin alpha-V/beta-3 (P05106 27-788 limits assumed): as the sequence (P05106 27-788 limits assumed) above
Chain of Integrin alpha-V/beta-3 (P06756 31-889 limits assumed): as the sequence (P06756 31-889 limits assumed) above
Chain of Integrin alpha-V/beta-3 (P06756 891-1048 limits assumed): as the sequence (P06756 891-1048 limits assumed) above

Row | SMILES | IC50 [1] [nM] | IC50 [2] [nM] | IC50 [3] [nM] | IC50 [4] [nM]
1 | Cc1ccc(S(=O)(=O)NC(CNC(=O)c2cc3cc(OCCON=C(N)N)ccc3[nH]2)C(=O)O)cc1 (stereo not given) | 9 |  |  | 
2 | N=C(N)NOCCOc1ccc2[nH]c(C(=O)NCC(NS(=O)(=O)c3ccccc3)C(=O)O)cc2c1 (stereo not given) | 3.4 | 13 | 1000 | 
3 | N=C(N)NOCCOc1ccc2[nH]c(C(=O)NCC(NC(=O)OCc3ccccc3)C(=O)O)cc2c1 (stereo not given) | 7.2 |  |  | 
4 | O=C(NCC(NS(=O)(=O)c1ccccc1)C(=O)O)c1cc2cc(OCCONC3=NCCN3)ccc2[nH]1 (stereo not given) | 100 | 170 | > 20000 | > 20000
5 | CC1(C)C2CCC1(S(=O)(=O)NC(CNC(=O)c1cc3cc(OCCONC(=N)N)ccc3[nH]1)C(=O)O)CC2 (stereo not given) | 0.4 |  |  | 
6 | N=C(N)NOCCOc1ccc2[nH]c(C(=O)NCC(NS(=O)(=O)c3cc(Cl)cc(Cl)c3)C(=O)O)cc2c1 (stereo not given) | 6.1 | 25 |  | > 1000

Other lines, results leading:

Row | IC50 [1] [nM] | IC50 [2] [nM] | IC50 [3] [nM] | IC50 [4] [nM] | SMILES
7 | 10.5 |  |  |  | CCCCS(=O)(=O)NC(CNC(=O)c1cc2cc(OCCON=C(N)N)ccc2[nH]1)C(=O)O (stereo not given)
8 | > 20000 |  |  |  | N=C(N)NOCCOc1ccc2[nH]c(C(=O)NCC(NCc3ccccc3)C(=O)O)cc2c1 (stereo not given)
9 | > 20000 |  |  |  | NC(N)=NOCCOc1ccc2[nH]c(C(=O)NCC(N)C(=O)O)cc2c1 (stereo not given)
10 | 130 |  |  |  | Cc1ccc(S(=O)(=O)NC(CNC(=O)c2cc3cc(OCCO/N=C(\N)NC(=O)OC(C)(C)C)ccc3[nH]2)C(=O)O)cc1 (stereo not given)
11 | 310 |  |  |  | N=C(N)NOCCOc1ccc2[nH]c(C(=O)NCC(NC(=O)c3ccccc3)C(=O)O)cc2c1 (stereo not given)
12 | > 20000 |  |  |  | O=C(NCc1ccccc1)NOCCOc1ccc2[nH]c(C(=O)NCC(NC(=O)OCc3ccccc3)C(=O)O)cc2c1 (stereo not given)
13 | > 20 |  |  |  | N=C(N)NOCCOc1ccc2[nH]c(C(=O)NC(CC(=O)O)c3cc(Cl)cc(Cl)c3)cc2c1 (stereo not given)

— ChEMBL document CHEMBL1137098, “Design, synthesis, and biochemical evaluation of novel alpha V beta 3 integrin ligands” (Bioorg Med Chem Lett, 2004)
